Several values for one entry are separate records, joined by “and”; a condition that tells them apart may be missing. Identical values can stand only once.
Assay: xn = mol fraction of the nth substance listed

CCCCCCCCCO + CO
viscosity [mPa·s], 101 kPa
Conditions | 298.15 K | 308.15 K | 318.15 K
x2 = 0.05 | 8.515 | 6.146 | 4.44
x2 = 0.1 | 7.93 | 5.765 | 4.2
x2 = 0.15 | 7.356 | 5.387 | 3.958
x2 = 0.2 | 6.793 | 5.013 | 3.716
x2 = 0.25 | 6.245 | 4.644 | 3.474
x2 = 0.3 | 5.711 | 4.281 | 3.233
x2 = 0.35 | 5.193 | 3.925 | 2.994
x2 = 0.4 | 4.694 | 3.579 | 2.756
x2 = 0.45 | 4.214 | 3.242 | 2.521
x2 = 0.5 | 3.754 | 2.916 | 2.29
x2 = 0.55 | 3.317 | 2.603 | 2.063
x2 = 0.6 | 2.902 | 2.302 | 1.841
x2 = 0.65 | 2.511 | 2.016 | 1.625
x2 = 0.7 | 2.146 | 1.744 | 1.417
x2 = 0.75 | 1.807 | 1.488 | 1.215
x2 = 0.8 | 1.496 | 1.248 | 1.023
x2 = 0.85 | 1.212 | 1.025 | 0.8404
x2 = 0.9 | 0.9583 | 0.8198 | 0.6684
x2 = 0.95 | 0.7342 | 0.6326 | 0.508

CC(=O)N(C)C + CCCCn1cc[n+](C)c1.F[B-](F)(F)F
101.33 kPa
Conditions | viscosity [mPa·s]
293.15 K, x2 = 0.8488 | 74.2
293.15 K, x2 = 0.9175 | 95.64
298.15 K, x2 = 0.9175 | 80.5
308.15 K, x2 = 0.437 | 7.88
323.15 K, x2 = 0.7419 | 9.78

CC(=O)N1CCOCC1 + CCCCO
viscosity [mPa·s], 101 kPa
Conditions | 293.15 K | 303.15 K | 313.15 K | 323.15 K
x1 = 0.0555 | 4.367 | 3.576 | 2.739 | 1.957
x1 = 0.1321 | 5.668 | 4.813 | 3.879 | 3.051
x1 = 0.2165 | 6.805 | 5.881 | 5.042 | 4.16
x1 = 0.2844 | 7.59 | 6.613 | 5.581 | 4.657
x1 = 0.3126 | 7.757 | 6.756 | 5.6 | 4.662
x1 = 0.4042 | 8.369 | 7.294 | 6.023 | 5.03
x1 = 0.4673 | 8.697 | 7.57 | 6.22 | 5.191
x1 = 0.5033 | 8.878 | 7.734 | 6.31 | 5.257
x1 = 0.5562 | 9.001 | 7.801 | 6.341 | 5.256
x1 = 0.6237 | 9.088 | 7.833 | 6.29 | 5.164
x1 = 0.6431 | 8.989 | 7.719 | 6.152 | 5.014
x1 = 0.6903 | 9.041 | 7.732 | 6.105 | 4.937
x1 = 0.7439 | 8.864 | 7.512 | 5.819 | 4.62
x1 = 0.7911 | 8.713 | 7.322 | 5.569 | 4.342
x1 = 0.8624 | 8.88 | 7.431 | 5.591 | 4.32
x1 = 0.9222 | 8.663 | 7.164 | 5.249 | 3.943
x1 = 0.9785 | 8.737 | 7.193 | 5.209 | 3.868

Cc1cccc2ccccc12 + CCCCCCCCCCCC
323.15 K, 100 kPa
Conditions | viscosity
x1 = 0.382 | 1.01 mPa·s and 1.02 mPa·s
x1 = 0.699 | 1.22 mPa·s
